Earlier results in patent US11517536B2, “Pharmaceutical composition comprising pomalidomide” (SYNTHON B.V., priority 2016, dated 2022).

Structure (SMILES): Nc1cccc2c1C(=O)N(C1CCC(=O)NC1=O)C2=O (centres unmarked) [Pomalidomide, 4-amino-2-(2,6-dioxopiperidin-3-yl)isoindole-1,3-dione]
- solubility: low
- solubility in water (drug substance, in water): practically insoluble
